Experimental data reported in ChEMBL document CHEMBL1909046, “DrugMatrix in vitro pharmacology data”.
pIC50, pKi: −log10 of the molar value.

Tests used:
[1] = target: T1, 5-hydroxytryptamine receptor 2C (Homo sapiens, UniProt P28335); test: DRUGMATRIX: Serotonin (5-Hydroxytryptamine) 5-HT2C radioligand binding (ligand: [3H] Mesulergine); format: cell membranes, CHO-K1, Membrane; details: cho-k1; Not Active = under 50% inhibition at 10 µM
T1 sequence (P28335 whole entry): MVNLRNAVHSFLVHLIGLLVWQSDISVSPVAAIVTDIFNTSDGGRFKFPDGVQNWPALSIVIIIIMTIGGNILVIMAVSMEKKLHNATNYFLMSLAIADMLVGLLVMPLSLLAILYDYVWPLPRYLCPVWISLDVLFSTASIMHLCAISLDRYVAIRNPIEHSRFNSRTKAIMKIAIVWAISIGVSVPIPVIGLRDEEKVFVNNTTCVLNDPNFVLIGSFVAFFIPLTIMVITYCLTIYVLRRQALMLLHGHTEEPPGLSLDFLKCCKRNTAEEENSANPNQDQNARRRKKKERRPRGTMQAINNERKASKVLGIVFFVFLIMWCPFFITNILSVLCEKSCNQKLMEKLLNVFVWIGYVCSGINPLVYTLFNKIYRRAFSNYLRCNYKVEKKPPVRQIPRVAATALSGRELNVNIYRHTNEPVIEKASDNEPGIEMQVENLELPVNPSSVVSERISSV

[2] = target: Vascular endothelial growth factor receptor 1 (Homo sapiens, UniProt P17948); format: cell-based; details: huvec; note: in other assays of this panel Not Active means under 50% inhibition at 10 µM
[3] = target: D(3) dopamine receptor (Homo sapiens, UniProt P35462); test: DRUGMATRIX: Dopamine D3 radioligand binding (ligand: [3H] Spiperone); format: cell membranes, CHO, Membrane; details: for pIC50: read-out: IC50; for pKi: read-out: Ki
[4] = target: T2, Angiotensin-converting enzyme (Oryctolagus cuniculus, UniProt P12822); format: tissue-based, Lung;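 note: enzymatic inhibition of angiotensin-converting enzyme measured with FAPGG as the substrate; in other assays of this panel Not Active means under 50% inhibition at 10 µM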
T2 sequence (P12822 whole entry): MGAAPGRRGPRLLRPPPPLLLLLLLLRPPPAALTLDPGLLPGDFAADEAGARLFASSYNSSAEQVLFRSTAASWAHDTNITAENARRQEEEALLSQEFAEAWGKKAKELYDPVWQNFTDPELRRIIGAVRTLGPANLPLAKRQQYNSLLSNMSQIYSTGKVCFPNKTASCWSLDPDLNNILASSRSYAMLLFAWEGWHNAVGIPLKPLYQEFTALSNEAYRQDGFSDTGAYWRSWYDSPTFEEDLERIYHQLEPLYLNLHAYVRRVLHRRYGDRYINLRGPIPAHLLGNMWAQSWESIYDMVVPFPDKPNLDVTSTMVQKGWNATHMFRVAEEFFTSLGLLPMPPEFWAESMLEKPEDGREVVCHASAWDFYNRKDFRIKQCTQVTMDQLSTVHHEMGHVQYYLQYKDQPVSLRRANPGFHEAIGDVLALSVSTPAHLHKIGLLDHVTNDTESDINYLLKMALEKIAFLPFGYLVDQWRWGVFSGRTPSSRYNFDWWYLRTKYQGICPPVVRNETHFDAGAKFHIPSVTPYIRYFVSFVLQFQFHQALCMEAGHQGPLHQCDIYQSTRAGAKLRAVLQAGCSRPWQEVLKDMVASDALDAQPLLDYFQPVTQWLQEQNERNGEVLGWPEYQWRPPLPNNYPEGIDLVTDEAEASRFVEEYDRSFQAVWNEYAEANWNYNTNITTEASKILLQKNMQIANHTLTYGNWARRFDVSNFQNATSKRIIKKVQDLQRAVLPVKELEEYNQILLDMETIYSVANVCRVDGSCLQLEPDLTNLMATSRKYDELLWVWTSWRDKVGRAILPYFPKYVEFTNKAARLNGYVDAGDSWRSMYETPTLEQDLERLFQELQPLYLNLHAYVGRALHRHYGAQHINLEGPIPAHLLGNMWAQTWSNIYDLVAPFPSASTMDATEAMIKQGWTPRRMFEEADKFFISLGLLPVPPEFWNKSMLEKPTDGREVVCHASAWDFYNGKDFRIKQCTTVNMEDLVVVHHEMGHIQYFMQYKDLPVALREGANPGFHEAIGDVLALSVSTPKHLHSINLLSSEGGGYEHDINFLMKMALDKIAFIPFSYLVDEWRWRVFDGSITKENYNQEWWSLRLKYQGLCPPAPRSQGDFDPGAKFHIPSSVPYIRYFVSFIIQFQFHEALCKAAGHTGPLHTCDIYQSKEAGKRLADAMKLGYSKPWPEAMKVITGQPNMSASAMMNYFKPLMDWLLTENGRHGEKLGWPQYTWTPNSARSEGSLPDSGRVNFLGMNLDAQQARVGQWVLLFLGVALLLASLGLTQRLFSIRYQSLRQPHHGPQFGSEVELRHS

[5] = target: T3, Cathepsin G (Homo sapiens, UniProt P08311); format: tissue-based; details: neutrophil;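 note: inhibition of Cathepsin G enzyme activity, tested on an AMC-conjugated peptide substrate; in other assays of this panel Not Active means under 50% inhibition at 10 µM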
T3 sequence (P08311 whole entry): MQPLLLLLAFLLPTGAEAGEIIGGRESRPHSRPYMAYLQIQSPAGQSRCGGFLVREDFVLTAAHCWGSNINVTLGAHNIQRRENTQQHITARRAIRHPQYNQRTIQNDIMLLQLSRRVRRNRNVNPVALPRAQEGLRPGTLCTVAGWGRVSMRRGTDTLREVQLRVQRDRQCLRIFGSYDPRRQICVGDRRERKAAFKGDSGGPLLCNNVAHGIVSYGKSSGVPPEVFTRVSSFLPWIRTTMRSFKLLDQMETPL

[6] = target: T4, 5-hydroxytryptamine receptor 1A (Rattus norvegicus, UniProt P19327); format: cell membranes, CHO-K1, Membrane; details: cho-k1; note: in other assays of this panel Not Active means under 50% inhibition at 10 µM
T4 sequence (P19327 whole entry): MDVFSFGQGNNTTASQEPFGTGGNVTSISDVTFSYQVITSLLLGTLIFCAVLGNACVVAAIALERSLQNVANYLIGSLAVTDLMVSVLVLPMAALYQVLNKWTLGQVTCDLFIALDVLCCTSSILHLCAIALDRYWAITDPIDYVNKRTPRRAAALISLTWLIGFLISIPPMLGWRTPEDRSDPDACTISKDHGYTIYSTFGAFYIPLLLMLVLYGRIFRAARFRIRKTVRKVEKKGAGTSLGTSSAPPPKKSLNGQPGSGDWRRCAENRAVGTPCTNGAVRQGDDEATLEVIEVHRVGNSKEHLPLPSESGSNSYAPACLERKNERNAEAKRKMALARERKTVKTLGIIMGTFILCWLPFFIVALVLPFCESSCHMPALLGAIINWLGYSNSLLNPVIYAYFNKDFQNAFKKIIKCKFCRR

Chain of D(3) dopamine receptor (P35462 whole entry): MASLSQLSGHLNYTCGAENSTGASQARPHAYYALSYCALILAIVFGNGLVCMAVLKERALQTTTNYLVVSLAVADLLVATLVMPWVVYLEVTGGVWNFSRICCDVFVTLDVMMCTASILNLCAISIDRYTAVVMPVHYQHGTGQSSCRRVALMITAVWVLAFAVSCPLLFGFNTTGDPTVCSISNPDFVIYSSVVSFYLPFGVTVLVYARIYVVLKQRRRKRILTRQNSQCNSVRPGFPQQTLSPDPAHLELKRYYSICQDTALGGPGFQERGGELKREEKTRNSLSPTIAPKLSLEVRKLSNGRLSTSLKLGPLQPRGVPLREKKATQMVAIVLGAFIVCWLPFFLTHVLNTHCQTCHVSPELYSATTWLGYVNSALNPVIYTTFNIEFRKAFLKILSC
Chain of Vascular endothelial growth factor receptor 1 (P17948 whole entry): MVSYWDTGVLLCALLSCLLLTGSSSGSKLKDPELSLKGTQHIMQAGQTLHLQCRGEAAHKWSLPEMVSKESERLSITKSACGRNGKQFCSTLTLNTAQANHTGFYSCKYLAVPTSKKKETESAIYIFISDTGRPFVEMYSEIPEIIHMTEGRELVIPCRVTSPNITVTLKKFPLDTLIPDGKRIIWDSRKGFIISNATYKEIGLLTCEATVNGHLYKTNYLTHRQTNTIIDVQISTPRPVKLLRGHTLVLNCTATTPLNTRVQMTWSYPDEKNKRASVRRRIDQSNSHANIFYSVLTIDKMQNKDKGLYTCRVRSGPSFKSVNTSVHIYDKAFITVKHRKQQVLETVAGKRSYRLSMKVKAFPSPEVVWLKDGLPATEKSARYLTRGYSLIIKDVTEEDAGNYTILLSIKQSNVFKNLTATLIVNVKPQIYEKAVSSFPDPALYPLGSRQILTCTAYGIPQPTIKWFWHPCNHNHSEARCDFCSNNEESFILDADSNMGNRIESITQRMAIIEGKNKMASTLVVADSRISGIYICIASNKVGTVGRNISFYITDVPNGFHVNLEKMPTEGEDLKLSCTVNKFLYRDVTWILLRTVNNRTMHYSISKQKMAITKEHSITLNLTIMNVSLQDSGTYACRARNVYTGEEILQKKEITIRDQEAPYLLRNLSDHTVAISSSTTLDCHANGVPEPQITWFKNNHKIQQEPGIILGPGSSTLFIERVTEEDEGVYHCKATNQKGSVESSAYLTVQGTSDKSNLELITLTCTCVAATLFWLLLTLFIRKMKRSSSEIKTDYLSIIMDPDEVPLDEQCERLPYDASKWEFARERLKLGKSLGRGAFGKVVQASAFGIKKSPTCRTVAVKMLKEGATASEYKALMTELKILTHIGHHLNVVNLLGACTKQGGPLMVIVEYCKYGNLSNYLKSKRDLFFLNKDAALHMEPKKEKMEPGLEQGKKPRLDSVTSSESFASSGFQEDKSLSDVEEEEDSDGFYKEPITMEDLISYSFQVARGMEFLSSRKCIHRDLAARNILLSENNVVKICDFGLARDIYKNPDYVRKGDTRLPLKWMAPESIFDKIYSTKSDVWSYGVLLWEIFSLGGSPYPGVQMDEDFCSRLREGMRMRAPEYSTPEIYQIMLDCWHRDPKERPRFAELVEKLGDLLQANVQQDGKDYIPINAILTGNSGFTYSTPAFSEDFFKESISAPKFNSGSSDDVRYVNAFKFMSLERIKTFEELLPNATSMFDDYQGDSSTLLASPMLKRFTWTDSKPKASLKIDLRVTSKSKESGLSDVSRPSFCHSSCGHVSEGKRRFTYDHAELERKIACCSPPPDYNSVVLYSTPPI

Compound | IC50 [1] | IC50 [2] | IC50 ([3]; cho) | IC50 [4] | IC50 [5] | IC50 [6] | Ki [1] | Ki [2] | pIC50 ([3]; cho) | pKi ([3]; cho) | Ki [4] | Ki [5] | Ki [6] | Ki ([3]; cho) | pIC50 [3] | pKi [3]
Cc1ccc(C(=O)c2ccc(CC(=O)O)n2C)cc1 [TOLMETIN] | Not Active | Not Active | Not Active | Not Active | Not Active | Not Active | – | – | – | – | – | – | – | – | – | –
C[C@]12C=CC(=O)C=C1CC[C@@H]1[C@@H]2C(=O)C[C@@]2(C)[C@H]1CC[C@]2(O)C(=O)CO [PREDNISONE] | Not Active | Not Active | Not Active | Not Active | Not Active | Not Active | – | – | – | – | – | – | – | – | – | –
CN1CCN(CCCN2c3ccccc3Sc3ccc(C(F)(F)F)cc32)CC1 [TRIFLUOPERAZINE] | Not Active | Not Active | Not Active | Not Active | Not Active | Not Active | – | – | – | – | – | – | – | – | – | –
O=C(O)COc1ccc(C(=O)c2cccs2)c(Cl)c1Cl | Not Active | Not Active | Not Active | Not Active | Not Active | Not Active | – | – | – | – | – | – | – | – | – | –
C[N+](C)(C)CCOC(=O)CCC(=O)OCC[N+](C)(C)C.[Cl-].[Cl-] [SUCCINYLCHOLINE CHLORIDE] | Not Active | Not Active | Not Active | Not Active | Not Active | Not Active | – | – | – | – | – | – | – | – | – | –
TRANSPLATIN | Not Active | Not Active | – | Not Active | Not Active | Not Active | Not Active | Not Active | 5.48 | 5.95 | Not Active | Not Active | Not Active | – | – | –
C[C@@](Cc1ccc(O)c(O)c1)(NN)C(=O)O.O [CARBIDOPA] | Not Active | Not Active | Not Active | Not Active | Not Active | Not Active | – | – | – | – | – | – | – | – | – | –
ZIRCONIUM(IV) CHLORIDE | Not Active | Not Active | Not Active | Not Active | Not Active | Not Active | Not Active | Not Active | – | – | Not Active | Not Active | Not Active | Not Active | – | –
CN(C)C(=O)C(CCN1CCC(O)(c2ccc(Cl)cc2)CC1)(c1ccccc1)c1ccccc1 [LOPERAMIDE] | Not Active | Not Active | – | Not Active | Not Active | Not Active | – | – | – | – | – | – | – | – | 5.87 | 6.34
O=C(O)c1ccccc1O [SALICYLIC ACID] | Not Active | Not Active | Not Active | Not Active | Not Active | Not Active | – | – | – | – | – | – | – | – | – | –
